In this experiment the target is Recombinant human PDK1 enzyme (aa 52-556) (Homo sapiens (Human), UniProt O15530). The experiment is described as follows: PDK1 kinase assay. To be noted: 25 μM ATP solution with gamma-P33-ATP, PDKtide substrate, 90 min at RT. The experiment is classed as biochemical. The procedure:
The activity of the compounds according to the invention on the kinase PDK1 which inhibits the signal transduction pathway is determined in an in vitro kinase assay with recombinantly prepared protein:
Recombinant human PDK1 enzyme (aa 52-556) linked at its N-terminal end to His6 is isolated from baculovirus-infected insect cells. Purified enzyme may be obtained for example from the University of Dundee, Scotland. The following components are combined in a well of a 96-well round-based dish (Greiner bio-one, No. 650101): • 1. 15 μL of compound to be tested in varying concentrations (e.g. starting at 10 μM, and diluted in steps of 1:5) in APT buffer (50 mM Tris/Cl pH7.5; 0.05% β-mercaptoethanol; 10 mM Mg-acetate; 0.0166% Tween 20; 3.33% DMSO) • 2. 15 μL His6-PDK1 (aa 52-556) 3.33 ng/well) and PDKtide (KTFCGTPEYLAPEVRRE […]), synthesised by Pepceuticals Limited, Nottingham, United Kingdom; 25 μM final concentration); His6-PDK1 and PDKtide are together diluted accordingly in assay buffer (50 mM tris pH 7.5, 0.05% β-mercaptoethanol, 10 mM Mg-acetate); PDKtide is present in this mixture as an 83.3 μM solution. These 30 μl are routinely incubated for 30 min at RT. • 3. 20 μL ATP solution (25 μM ATP with 1.0 μCi/well gamma-P33-ATP). The final concentration of Tween 20 is 0.005%.
The reaction is started by adding the ATP solution and the mixture is incubated for 90 min at RT. At the start of the reaction the dishes are shaken gently. The reaction is stopped by the addition of 50 μL/well of 500 mM phosphoric acid (H3PO4) and incubated for about 20 min at RT. The precipitate is transferred by harvesting onto filter plates (96-well microtitre filter plate: UniFilter GF/C; Perkin Elmer; No. 6005174), then washed 6 times with 50 mM H3PO4 and dried at 60° C. Then the plate is stuck down with sealing tape, 25 μL/well of scintillation solution (Microscint 0; Perkin Elmer; No. 6013611) are added and the amount of P33 precipitated is measured using the Wallac Betacounter. The measured data are evaluated using Graphpad Prism software.
Sequence of Recombinant human PDK1 enzyme (aa 52-556) (O15530 52-556): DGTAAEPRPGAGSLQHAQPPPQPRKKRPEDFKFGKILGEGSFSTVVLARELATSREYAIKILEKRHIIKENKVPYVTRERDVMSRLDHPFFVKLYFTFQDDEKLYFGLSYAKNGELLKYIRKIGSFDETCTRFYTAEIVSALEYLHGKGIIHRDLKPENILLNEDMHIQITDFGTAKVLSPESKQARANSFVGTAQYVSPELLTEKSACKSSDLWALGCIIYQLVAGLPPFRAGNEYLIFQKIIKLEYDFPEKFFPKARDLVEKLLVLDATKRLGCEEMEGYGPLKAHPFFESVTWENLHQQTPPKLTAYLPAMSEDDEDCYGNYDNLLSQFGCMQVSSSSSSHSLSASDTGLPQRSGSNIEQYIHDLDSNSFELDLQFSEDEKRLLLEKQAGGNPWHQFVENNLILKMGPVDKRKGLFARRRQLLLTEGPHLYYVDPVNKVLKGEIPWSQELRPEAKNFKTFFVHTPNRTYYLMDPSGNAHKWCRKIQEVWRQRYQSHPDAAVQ
For orientation: IC50 means the concentration that gives 50% inhibition. Take `CN(C)CCn1cnc2cnc3ccc(C#CCNC(=O)c4cccn(Cc5ccccc5)c4=O)cc3c21` [III-10]: the concentration for half-maximal inhibition (IC50) is 0.277 µM.

With `O=C(NCC#Cc1ccc2ncc3ncn(CCO)c3c2c1)c1cccn(Cc2ccc(F)c(F)c2)c1=O` [III-11], the IC50 was 0.018 µM.

`O=C(NCC#Cc1ccc2ncc3ncn(CCO)c3c2c1)c1cccn(Cc2ccccc2)c1=O` [III-12]: the concentration for half-maximal inhibition (IC50) turned out to be 0.068 µM.

In the case of `Cc1nc2cnc3ccc(C#CCNC(=O)c4cncn(Cc5ccc(F)c(F)c5)c4=O)cc3c2n1CCN(C)C` [III-13], the half-maximal inhibitory concentration (IC50) stood at 0.053 µM.

In the case of `CN1CCC(n2cnc3cnc4ccc(C#CCNC(=O)c5cc(Cl)nn(Cc6ccc(F)c(F)c6)c5=O)cc4c32)CC1` [III-14], the concentration for half-maximal inhibition (IC50) turned out to be 0.001 µM.

Consider `CN1CC[C@@H](n2cnc3cnc4ccc(C#CCNC(=O)c5cccn(Cc6ccc(F)c(F)c6)c5=O)cc4c32)C1` [III-15], for which the IC50 turned out to be 0.02 µM.

As to `CN1CC[C@H](n2cnc3cnc4ccc(C#CCNC(=O)c5cc(Cl)nn(Cc6ccc(F)c(F)c6)c5=O)cc4c32)C1` [III-16], the IC50 came to 0.011 µM.

For the compound `CN1CCC[C@@H](n2cnc3cnc4ccc(C#CCNC(=O)c5cc(Cl)nn(Cc6ccc(F)c(F)c6)c5=O)cc4c32)C1` [III-18], the IC50 turned out to be 0.787 µM.

For the compound `Cc1c(C(=O)NCC#Cc2ccc3ncc4ncn(C5CCN(C(C)C)CC5)c4c3c2)c(=O)n(Cc2ccc(F)c(F)c2)n1C` [III-19], the IC50 came out at 0.045 µM.

Turning to `CCN1CCC(n2cnc3cnc4ccc(C#CCNC(=O)c5c(C)n(C)n(Cc6ccc(F)c(F)c6)c5=O)cc4c32)CC1` [III-20], the concentration for half-maximal inhibition (IC50) worked out at 0.032 µM.

For the compound `Cc1nc2cnc3ccc(C#CCNC(=O)c4c(C)n(C)n(Cc5ccc(F)c(F)c5)c4=O)cc3c2n1C1CCOCC1` [III-21], the IC50 was determined as 0.005 µM.

As to `O=C(NCC#Cc1ccc2ncc3ncn(C4CCOC4)c3c2c1)c1cccn([C@@H](CO)c2cccc(F)c2)c1=O` (some centres unmarked) [III-22], the IC50 came to 0.007 µM.

As to `Cc1nc2cnc3ccc(C#CCNC(=O)c4cccn([C@@H](C)c5ccc(F)c(F)c5)c4=O)cc3c2n1[C@H]1CC[C@H](N(C)C)CC1` [III-23], the IC50 came out at 0.001 µM.

As for `Cc1nc2cnc3ccc(C#CCNC(=O)c4cccn([C@@H](CO)c5cccc(F)c5)c4=O)cc3c2n1[C@H]1CC[C@H](N(C)C)CC1` [III-24], the concentration for half-maximal inhibition (IC50) came out at 0.003 µM.

Regarding `Cc1nc2cnc3ccc(C#CCNC(=O)c4cccn([C@@H](CO)c5cccc(F)c5)c4=O)cc3c2n1[C@H]1CC[C@@H](N(C)C)CC1` [III-25], the IC50 came out at 0.004 µM.

For the compound `CN(C)[C@H]1CC[C@H](n2cnc3cnc4ccc(C#CCNC(=O)c5cccn([C@@H](CO)c6cccc(F)c6)c5=O)cc4c32)CC1` [III-26], the IC50 came to 0.001 µM.

In the case of `CN(C)[C@H]1CC[C@@H](n2cnc3cnc4ccc(C#CCNC(=O)c5cccn([C@@H](CO)c6cccc(F)c6)c5=O)cc4c32)CC1` [III-27], the half-inhibitory concentration (IC50) came to 0.003 µM.

Consider `Cc1nc2cnc3ccc(C#CCNC(=O)c4cncn(Cc5ccc(F)c(F)c5)c4=O)cc3c2n1C1CCCOC1` (centres unmarked) [III-28], for which the IC50 is 0.002 µM.

For `NC[C@@H](c1ccccc1)n1cccc(C(=O)NCC#Cc2ccc3ncc4ncn(C5CCOC5)c4c3c2)c1=O` (some centres unmarked) [III-29], the IC50 stood at 0.681 µM.

Consider `Cn1cnc2cnc3ccc(C#CCNC(=O)c4cncn(Cc5ccc(F)c(F)c5)c4=O)cc3c21` [III-30], for which the IC50 was determined as 0.005 µM.

As for `CCn1cnc2cnc3ccc(C#CCNC(=O)c4cncn(Cc5ccc(F)c(F)c5)c4=O)cc3c21` [III-31], the IC50 is 0.001 µM.

Take `CC(C)n1cnc2cnc3ccc(C#CCNC(=O)c4cncn(Cc5ccc(F)c(F)c5)c4=O)cc3c21` [III-32]: the IC50 worked out at 0.002 µM.

As to `CCn1c(C)nc2cnc3ccc(C#CCNC(=O)c4cncn(Cc5ccc(F)c(F)c5)c4=O)cc3c21` [III-33], the half-inhibitory concentration (IC50) came out at 0.002 µM.

Regarding `Cc1nc2cnc3ccc(C#CCNC(=O)c4cncn(Cc5ccc(F)c(F)c5)c4=O)cc3c2n1C` [III-34], the IC50 came to 0.008 µM.

Turning to `CCOc1cc(C(=O)NCC#Cc2ccc3ncc4ncn(C(C)C)c4c3c2)c(=O)n(Cc2ccc(F)c(F)c2)n1` [IV-1, 2-(3,4-difluorobenzyl)-6-ethoxy-3-oxo-2,3-dihydro-pyridazine-4-carboxylic acid [3-(1-isopropyl-1H-imidazo[4,5-c]quinolin-8-yl)-prop-2-ynyl]-amide], the 50% inhibitory concentration (IC50) was 0.005 µM.

`CCOc1nc2cnc3ccc(C#CCNC(=O)c4cncn(Cc5ccc(F)c(F)c5)c4=O)cc3c2n1C` [V-1, 1-(3,4-difluoro-benzyl)-6-oxo-1,6-dihydro-pyrimidine-5-carboxylic acid [3-(2-ethoxy-1-methyl-1H-imidazo[4,5-c]quinolin-8-yl)-prop-2-ynyl]-amide]: the IC50 came out at 0.033 µM.

As for `Cn1c(-c2ccccc2)nc2cnc3ccc(C#CCNC(=O)c4cncn(Cc5ccc(F)c(F)c5)c4=O)cc3c21` [V-2], the IC50 amounted to 0.072 µM.

In the case of `CCc1nc2cnc3ccc(C#CCNC(=O)c4cncn(Cc5ccc(F)c(F)c5)c4=O)cc3c2n1C` [V-3], the concentration for half-maximal inhibition (IC50) worked out at 0.008 µM.

On to `COc1nc2cnc3ccc(C#CCNC(=O)c4cncn(Cc5ccc(F)c(F)c5)c4=O)cc3c2n1C` [V-4], for which the IC50 was 0.018 µM.

With `COCCc1nc2cnc3ccc(C#CCNC(=O)c4cncn(Cc5ccc(F)c(F)c5)c4=O)cc3c2n1C` [V-5, 1-(3,4-difluoro-benzyl)-6-oxo-1,6-dihydro-pyrimidine-5-carboxylic acid {3-[2-(2-methoxy-ethyl)-1-methyl-1H-imidazo[4,5-c]quinolin-8-yl]-prop-2-ynyl}-amide], the IC50 is 0.024 µM.

As for `Cn1c(CF)nc2cnc3ccc(C#CCNC(=O)c4cncn(Cc5ccc(F)c(F)c5)c4=O)cc3c21` [V-6, 1-(3,4-difluoro-benzyl)-6-oxo-1,6-dihydro-pyrimidine-5-carboxylic acid [3-(2-fluoromethyl-1-methyl-1H-imidazo[4,5-c]quinolin-8-yl)-prop-2-ynyl]-amide], the IC50 was found to be 0.019 µM.

Regarding `COCc1nc2cnc3ccc(C#CCNC(=O)c4cncn(Cc5ccc(F)c(F)c5)c4=O)cc3c2n1C` [V-7], the IC50 was found to be 0.041 µM.

Take `CN(C)Cc1nc2cnc3ccc(C#CCNC(=O)c4cncn(Cc5ccc(F)c(F)c5)c4=O)cc3c2n1C` [V-8, 1-(3,4-difluoro-benzyl)-6-oxo-1,6-dihydro-pyrimidine-5-carboxylic acid [3-(2-dimethylaminomethyl-1-methyl-1H-imidazo[4,5-c]quinolin-8-yl)-prop-2-ynyl]-amide]: the half-maximal inhibitory concentration (IC50) turned out to be 0.079 µM.

Regarding `CN(C)CCCc1nc2cnc3ccc(C#CCNC(=O)c4cncn(Cc5ccc(F)c(F)c5)c4=O)cc3c2n1C` [V-9], the IC50 was found to be 0.006 µM.

Take `CN(C)CCc1nc2cnc3ccc(C#CCNC(=O)c4cncn(Cc5ccc(F)c(F)c5)c4=O)cc3c2n1C` [V-10]: the IC50 came out at 0.022 µM.

The values above are taken from US8895581B2, “1H-imidazo[4,5-c]quinolines” (Boehringer Ingelheim International GmbH, priority 2010, dated 2014).
